# Laboratory results published in patent US10844038B2, “1,2-dithiolane compounds useful in neuroprotection, autoimmune and cancer diseases and conditions” (SABILA BIOSCIENCES LLC, priority 2016, dated 2020).
# Tests used:
# HER4 = HER4 (Homo sapiens (Human), UniProt Q15303); assay: Radioisotope filter binding assay; assay type: biochemical; settings: read-out: IC50 Activity Levels Against RTKs (c-Kit, RET, HER4) and AurA, CHK2 Kinases: HER4
# Protocol: (§1) 3. Radioisotope Filter Binding Assay:
# (§2) In this assay format, it directly detects the true product without the use of modified substrates or coupling enzymes (Uitdehaag, J. C., et al. Br. J. Pharmacol. 2012, 166, 858-876; Hastie, C. J., et al. Nat. Protoc. 2006, 1, 968-971) according to equation 1. Substrate+[γ−^33P]−ATP→^33P-Substrate+ADP eq 1
# (§3) The protocol calls for test compound of the invention to be incubated with kinase, substrate, cofactors, and radio-isotope-labeled ATP (^33P-gamma-ATP). The reaction mixtures are then spotted onto filter papers which bind the radioisotope labeled catalytic product. Unreacted phosphate is removed via washing. The reagents used include base reaction buffer; 20 mM Hepes (pH 7.5), 10 mM MgCl2, 1 mM EGTA, 0.02% Brij35, 0.02 mg/ml BSA, 0.1 mM Na3VO4, 2 mM DTT, 1% DMSO. The reaction procedure include the following steps: (1) prepare indicated substrate in freshly prepared base reaction buffer, (2) deliver any required cofactors to the substrate solution above, (3) deliver indicated kinase into the substrate solution and gently mix, (4) deliver compounds in DMSO into the kinase reaction mixture by Acoustic technology (Echo550; nanoliter range), incubate for 20 minutes at room temperature, (5) deliver ^33P-ATP (specific activity 10 μCi/μL) into the reaction mixture to initiate the reaction, (6) incubate kinase reaction for 2 hours at room temperature, (7) reactions are spotted onto P81 ion exchange paper, (8) detect kinase activity by filter-binding method.
# c-KIT = c-KIT (Homo sapiens (Human), UniProt P10721); assay: Radioisotope filter binding assay; assay type: biochemical; settings: read-out: IC50 Activity Levels Against RTKs (c-Kit, RET, HER4) and AurA, CHK2 Kinases: c-KIT
# Protocol: as §1, §2, §3
# RET = RET (Homo sapiens (Human), UniProt P07949); assay: Radioisotope filter binding assay; assay type: biochemical; settings: read-out: IC50 Activity Levels Against RTKs (c-Kit, RET, HER4) and AurA, CHK2 Kinases: RET
# Protocol: as §1, §2, §3
# KDR/VEGFR2 = KDR/VEGFR2 (Homo sapiens (Human), UniProt P35968); assay: Radioisotope filter binding assay; assay type: biochemical; settings: read-out: IC50 Activity Levels Against MAPK Pathway Kinases: KDR/VEGFR2
# Chain of KDR/VEGFR2 (P35968 20-1356): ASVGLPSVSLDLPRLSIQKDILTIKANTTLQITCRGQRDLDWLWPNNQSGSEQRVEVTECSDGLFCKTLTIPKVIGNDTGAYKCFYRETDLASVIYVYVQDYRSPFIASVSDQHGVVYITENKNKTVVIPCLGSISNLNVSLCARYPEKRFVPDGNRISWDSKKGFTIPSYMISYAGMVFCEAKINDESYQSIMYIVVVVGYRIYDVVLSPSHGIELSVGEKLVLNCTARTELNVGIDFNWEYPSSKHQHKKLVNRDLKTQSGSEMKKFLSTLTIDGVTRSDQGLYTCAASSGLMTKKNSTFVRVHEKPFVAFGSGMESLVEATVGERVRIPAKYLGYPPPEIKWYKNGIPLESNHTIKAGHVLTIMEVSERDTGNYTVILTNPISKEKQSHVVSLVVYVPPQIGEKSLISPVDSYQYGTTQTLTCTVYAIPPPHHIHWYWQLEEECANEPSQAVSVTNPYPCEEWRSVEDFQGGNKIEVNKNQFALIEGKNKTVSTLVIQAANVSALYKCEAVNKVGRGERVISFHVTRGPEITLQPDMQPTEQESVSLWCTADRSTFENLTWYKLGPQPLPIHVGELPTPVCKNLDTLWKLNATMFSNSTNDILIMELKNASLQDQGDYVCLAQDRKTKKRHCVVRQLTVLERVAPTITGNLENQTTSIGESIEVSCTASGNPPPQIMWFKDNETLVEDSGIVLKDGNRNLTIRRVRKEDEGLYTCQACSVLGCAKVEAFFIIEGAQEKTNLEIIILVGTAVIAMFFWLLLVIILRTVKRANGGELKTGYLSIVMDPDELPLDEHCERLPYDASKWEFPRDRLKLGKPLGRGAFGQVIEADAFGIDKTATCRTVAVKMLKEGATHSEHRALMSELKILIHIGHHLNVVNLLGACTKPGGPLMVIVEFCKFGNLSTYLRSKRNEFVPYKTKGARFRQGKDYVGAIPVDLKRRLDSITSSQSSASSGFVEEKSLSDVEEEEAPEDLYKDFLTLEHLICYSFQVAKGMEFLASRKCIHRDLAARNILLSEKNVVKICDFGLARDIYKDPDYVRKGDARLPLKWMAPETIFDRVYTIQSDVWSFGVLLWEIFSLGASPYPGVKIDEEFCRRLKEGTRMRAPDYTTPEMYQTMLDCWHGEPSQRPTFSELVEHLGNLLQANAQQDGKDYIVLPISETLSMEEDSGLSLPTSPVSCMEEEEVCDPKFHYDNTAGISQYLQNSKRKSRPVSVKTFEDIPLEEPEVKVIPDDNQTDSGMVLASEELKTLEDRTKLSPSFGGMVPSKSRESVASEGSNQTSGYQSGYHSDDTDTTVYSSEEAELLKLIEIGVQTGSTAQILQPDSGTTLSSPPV
# Protocol: as §1, §2, §3
# BRAF = BRAF (Homo sapiens (Human), UniProt P15056); assay: Radioisotope filter binding assay; assay type: biochemical; settings: read-out: IC50 Activity Levels Against MAPK Pathway Kinases: BRAF
# Protocol: as §1, §2, §3
# [1] = molecular target: Bruton Tyrosine Kinase (BTK) (Homo sapiens (Human), UniProt Q06187); assay: Rabbit reticulocyte lysate assay (KinaseSeeker competition binding); settings: read-out: IC50 Activity Levels Against Bruton Tyrosine Kinase: BTK
# Chain of Bruton Tyrosine Kinase (BTK) (Q06187 whole entry): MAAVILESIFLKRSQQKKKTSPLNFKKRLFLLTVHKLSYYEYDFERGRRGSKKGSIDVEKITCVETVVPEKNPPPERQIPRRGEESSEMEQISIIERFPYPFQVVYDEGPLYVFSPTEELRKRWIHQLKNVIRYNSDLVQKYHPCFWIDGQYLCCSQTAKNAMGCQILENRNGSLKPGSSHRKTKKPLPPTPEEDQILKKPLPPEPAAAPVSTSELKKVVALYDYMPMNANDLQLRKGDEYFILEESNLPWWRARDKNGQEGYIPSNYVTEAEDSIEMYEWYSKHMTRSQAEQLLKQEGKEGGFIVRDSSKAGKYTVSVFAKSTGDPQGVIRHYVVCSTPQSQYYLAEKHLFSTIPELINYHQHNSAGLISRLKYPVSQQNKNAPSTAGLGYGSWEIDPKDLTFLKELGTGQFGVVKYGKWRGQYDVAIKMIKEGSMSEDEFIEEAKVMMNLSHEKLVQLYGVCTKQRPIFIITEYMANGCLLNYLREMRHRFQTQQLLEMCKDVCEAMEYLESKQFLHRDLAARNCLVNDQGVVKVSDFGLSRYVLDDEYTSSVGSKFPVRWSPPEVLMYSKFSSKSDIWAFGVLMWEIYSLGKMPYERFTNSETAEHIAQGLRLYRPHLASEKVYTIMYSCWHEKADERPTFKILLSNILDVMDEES
# Protocol: 1. Rabbit Reticulocyte Lysate Assay Design:
# KinaseSeeker is a homogeneous competition binding assay where the displacement of an active site dependent probe by an inhibitor is measured by a change in luminescence signal. Luminescence readout translates into a highly sensitive and robust assay with low background and minimal interference from test compounds.
# 10 mM stock solutions of test compounds were serially diluted in DMSO to make assay stocks. Prior to initiating IC50 determinations, the test compounds were evaluated for false positive against split-luciferase.
# Each test compound was screened in duplicate against target kinase at 7 different concentrations. For kinase assays, Cfluc-kinase was translated along with Fos-Nfluc using a cell-free system (rabbit reticulocyte lysate) at 30° C. for 90 min. 24 uL aliquot of this lysate containing either 1 uL of DMSO (for no-inhibitor control) or compound solution in DMSO was incubated for 30 minutes at room temperature followed by 1 hour in presence of a kinase specific probe. 80 uL of luciferin assay reagent was added to each solution and luminescence was immediately measured on a luminometer.
# The % Inhibition and % Activity Remaining was calculated using the following equation: % Inhibition=[(ALUControl−ALUSample)/ALUControl]×100 % Activity Remaining=100−% Inhibition
# The % Activity was plotted against compound concentration and the IC50 was determined for each compound using a 7-point curve (Jester, B. W.; et. al. J. Am. Chem. Soc. 2010, 132, 11727-11735. Jester, B. W., et. al. J. Med. Chem. 2012, 55, 1526-1537). Biological activity of representative compounds of the disclosure are described in Table 5.
# FYN isoform (a) = FYN isoform (a) (Homo sapiens (Human), UniProt P06241); assay: Kinase binding assay CaPBA; settings: read-out: IC50 Activity Levels Against FYN isoforms, YES1 and MEK5: FYN isoform (a)
# Chain of FYN isoform (a) (P06241 whole entry, canonical isoform): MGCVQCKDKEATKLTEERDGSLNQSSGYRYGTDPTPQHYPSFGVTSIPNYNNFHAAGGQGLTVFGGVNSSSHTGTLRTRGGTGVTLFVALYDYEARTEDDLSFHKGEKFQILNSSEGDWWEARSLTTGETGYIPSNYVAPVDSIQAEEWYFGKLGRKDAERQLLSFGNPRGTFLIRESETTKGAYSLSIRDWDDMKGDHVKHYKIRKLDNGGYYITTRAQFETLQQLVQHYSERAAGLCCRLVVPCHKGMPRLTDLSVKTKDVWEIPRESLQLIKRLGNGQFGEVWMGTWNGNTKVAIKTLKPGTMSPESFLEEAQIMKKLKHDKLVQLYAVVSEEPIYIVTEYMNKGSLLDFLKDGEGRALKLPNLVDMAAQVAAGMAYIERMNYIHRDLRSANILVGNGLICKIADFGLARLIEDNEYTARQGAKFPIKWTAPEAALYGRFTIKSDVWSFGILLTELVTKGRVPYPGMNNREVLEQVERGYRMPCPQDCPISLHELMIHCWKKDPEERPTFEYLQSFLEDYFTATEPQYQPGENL
# Source text: (§4) 4. Kinase Binding Assay CaPBA:
# FYN isoform (b) = FYN isoform (b) (Homo sapiens (Human), UniProt P06241); assay: Kinase binding assay CaPBA; settings: read-out: IC50 Activity Levels Against FYN isoforms, YES1 and MEK5: FYN isoform (b)
# Source text: as §4
# FYN = FYN (Homo sapiens (Human), UniProt P06241); assay: Radiometric 33PanQinase assay (FlashPlate-based Protein Kinase Assay); assay type: biochemical; settings: at app. ATP Km, read-out: IC50 Activity Levels Against FYN Kinase: FYN
# Chain of FYN (P06241 whole entry): as the sequence (P06241 whole entry, canonical isoform) above
# Source text: 5. Radiometric ^33PanQinase^R Assay:
# This assay referred to as FlashPlate-based Protein Kinase Assay uses recombinant protein kinase and ATP concentration corresponding to the apparent ATP-Km of the respective kinase. Testing of inhibitors is done at app. ATP Km.
# MEK5 = MEK5 (Homo sapiens (Human), UniProt Q13163); assay: Kinase binding assay CaPBA; settings: read-out: IC50 Activity Levels Against FYN isoforms, YES1 and MEK5: MEK5
# Chain of MEK5 (Q13163 whole entry, canonical isoform): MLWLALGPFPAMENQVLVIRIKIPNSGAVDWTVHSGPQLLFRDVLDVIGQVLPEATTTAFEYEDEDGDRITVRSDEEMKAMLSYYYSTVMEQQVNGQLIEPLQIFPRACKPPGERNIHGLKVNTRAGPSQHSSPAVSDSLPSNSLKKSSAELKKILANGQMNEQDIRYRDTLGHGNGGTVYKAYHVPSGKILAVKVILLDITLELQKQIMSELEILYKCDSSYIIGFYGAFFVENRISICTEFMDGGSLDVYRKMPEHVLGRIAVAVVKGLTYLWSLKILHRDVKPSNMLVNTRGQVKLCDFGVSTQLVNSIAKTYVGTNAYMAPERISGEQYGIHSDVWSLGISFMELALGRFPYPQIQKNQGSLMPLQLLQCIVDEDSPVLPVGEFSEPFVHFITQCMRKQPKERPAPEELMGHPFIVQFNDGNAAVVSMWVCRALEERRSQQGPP
# Source text: as §4
# Chain of HER4 (Q15303 26-1308): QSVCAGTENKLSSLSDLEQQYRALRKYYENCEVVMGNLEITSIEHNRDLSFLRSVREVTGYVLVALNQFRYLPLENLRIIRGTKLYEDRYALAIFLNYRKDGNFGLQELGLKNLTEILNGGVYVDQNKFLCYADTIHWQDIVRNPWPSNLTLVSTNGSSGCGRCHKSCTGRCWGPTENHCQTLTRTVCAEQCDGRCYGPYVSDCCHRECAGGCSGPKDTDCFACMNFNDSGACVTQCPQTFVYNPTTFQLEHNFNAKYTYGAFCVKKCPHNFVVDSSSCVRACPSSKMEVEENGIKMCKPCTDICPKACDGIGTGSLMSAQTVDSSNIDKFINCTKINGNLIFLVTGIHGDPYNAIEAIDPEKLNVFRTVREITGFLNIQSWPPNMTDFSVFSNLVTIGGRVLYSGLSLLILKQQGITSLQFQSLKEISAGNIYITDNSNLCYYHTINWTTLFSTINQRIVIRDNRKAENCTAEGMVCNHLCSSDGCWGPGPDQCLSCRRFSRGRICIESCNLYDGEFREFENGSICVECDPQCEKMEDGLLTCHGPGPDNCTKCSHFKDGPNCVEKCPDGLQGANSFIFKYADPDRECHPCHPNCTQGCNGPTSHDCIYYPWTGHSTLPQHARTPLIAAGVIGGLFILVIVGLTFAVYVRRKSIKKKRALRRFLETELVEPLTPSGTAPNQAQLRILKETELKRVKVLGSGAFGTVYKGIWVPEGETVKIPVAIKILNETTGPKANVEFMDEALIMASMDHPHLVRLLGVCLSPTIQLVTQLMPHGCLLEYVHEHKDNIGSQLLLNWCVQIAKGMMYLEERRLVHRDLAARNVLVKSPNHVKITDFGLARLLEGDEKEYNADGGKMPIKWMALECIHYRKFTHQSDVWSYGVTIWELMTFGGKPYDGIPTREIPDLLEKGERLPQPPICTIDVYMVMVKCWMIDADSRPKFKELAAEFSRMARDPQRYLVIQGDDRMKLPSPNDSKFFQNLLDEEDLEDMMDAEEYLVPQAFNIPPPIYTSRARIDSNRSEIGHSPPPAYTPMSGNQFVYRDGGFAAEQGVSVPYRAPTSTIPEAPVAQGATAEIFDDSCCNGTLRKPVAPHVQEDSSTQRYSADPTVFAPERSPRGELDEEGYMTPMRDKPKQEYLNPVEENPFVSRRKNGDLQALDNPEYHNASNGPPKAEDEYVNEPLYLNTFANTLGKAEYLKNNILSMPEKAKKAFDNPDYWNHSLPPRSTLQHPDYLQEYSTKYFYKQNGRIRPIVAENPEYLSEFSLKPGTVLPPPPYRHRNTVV
IC50 (HER4) [nM],IC50 (c-KIT) [µM],IC50 (RET) [nM],IC50 (KDR/VEGFR2) [µM],IC50 (BRAF) [µM],IC50 [1] [nM],IC50 (FYN isoform (a)) [nM],IC50 (FYN isoform (b)) [nM],IC50 (FYN) [nM],IC50 (MEK5) [µM],SMILES
1000 to 10000,1 to 10,100 to 999,1 to 10,1 to 10,1000 to 10000,,,,,Nc1ncnc2c1c(-c1ccc(Oc3ccccc3)cc1)nn2C[C@@H]1SSC[C@@H]1O [46 A.]
,,,,,1000 to 10000,5 to 99,5 to 99,,,Nc1ncnc2c1c(-c1ccc(Oc3ccccc3)cc1)nn2C[C@@H]1SSC[C@H]1O [43 A.]
5 to 99,1 to 10,1000 to 10000,1 to 10,1 to 10,1000 to 10000,,,5 to 99,1 to 10,Nc1ncnc2c1c(-c1ccc(Oc3ccccc3)cc1)nn2C[C@H]1SSC[C@H]1O [46 B.]
,,,,,100 to 999,5 to 99,5 to 99,5 to 99,1 to 10,Nc1ncnc2c1c(-c1ccc(Oc3ccccc3)cc1)nn2C[C@H]1SSC[C@@H]1O [43 B.]
